The results in this text go back to patent publication US20060069123A1, “Substituted dipiperidine CCR2 antagonists” (priority 2004, published 2006).

The target of one assay is T1, CCR2 (Homo sapiens, UniProt P41597).
T1 sequence (P41597 1-360 isoform P41597-2): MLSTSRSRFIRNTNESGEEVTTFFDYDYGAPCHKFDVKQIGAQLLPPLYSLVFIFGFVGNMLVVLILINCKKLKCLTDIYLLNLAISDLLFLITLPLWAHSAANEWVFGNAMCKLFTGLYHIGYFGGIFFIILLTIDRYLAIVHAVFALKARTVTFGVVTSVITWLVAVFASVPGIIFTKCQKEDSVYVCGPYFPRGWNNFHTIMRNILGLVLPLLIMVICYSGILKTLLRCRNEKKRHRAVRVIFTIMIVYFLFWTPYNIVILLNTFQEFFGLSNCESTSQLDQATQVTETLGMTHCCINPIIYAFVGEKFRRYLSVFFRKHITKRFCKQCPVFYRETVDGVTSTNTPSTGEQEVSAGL

The subject of assay [1] is THP-1 cells. Briefly: MCP-1 Induced Chemotaxis in THP-1 Cells. The assay is classed as cell-based. The note with it: read-out: Inhibition of MCP-1 Induced Chemotaxis IC50.
The test system of assay [2] is THP-1 cells.
[3] abbreviates: Homo sapiens, THP-1 cells, MCP-1 0.01 μg/mL, 3 hours.
The mark [4] stands for this setting: Homo sapiens, THP-1, read-out: Inhibition of MCP-1 Induced Calcium Ion Influx IC50.
Where [5] appears, read: THP-1 cells, MCP-1 0.01 μg/mL, 3 hours.
[6] abbreviates: read-out: Inhibition of MCP-1 Induced Calcium Ion Influx IC50, THP-1 cells, 0.2 μM MCP-1, FLIPR.

Read-outs that look alike come from different tables or passages of the source.

As a reminder, the IC50 is the concentration that gives 50% inhibition. As for `O=C(O)C(C1CCN(C(=O)Nc2cc(F)cc(C(F)(F)F)c2)CC1)N1CCC(c2c[nH]c3ccccc23)CC1` (stereo not shown) [Cpd 65, [1-(3-fluoro-5-trifluoromethyl-phenylcarbamoyl)-piperidin-4-yl]-[4-(1H-indol-3-yl)-piperidin-1-yl]-acetic acid], the IC50 against CCR2 amounted to 353 nM; in the assay with THP-1 cells [1] (setting [3]), 1600 nM; in the assay with THP-1 cells [2] (setting [4]), 120 nM.
On to `Nc1ccc2[nH]cc(C3CCN(C(CO)C4CCN(C(=O)/C=C/c5cc(F)c(F)c(F)c5)CC4)CC3)c2n1` (stereo not shown) [Cpd 191, (2E)-1-(4-{1-[4-(5-amino-1H-pyrrolo[3,2-b]pyridin-3-yl)-piperidin-1-yl]-2-hydroxy-ethyl}-piperidin-1-yl)-3-(3,4,5-trifluoro-phenyl)-propenone], for which the figures for the IC50 on CCR2, in the assay with THP-1 cells [1] (setting [3]) and in the assay with THP-1 cells [2] (setting [4]) were 100 nM, 150 nM and 170 nM, respectively.
The corresponding values for `O=C(/C=C/c1ccc(F)c(Br)c1)N1CCC(C(CO)N2CCC(c3ccncc3)CC2)CC1` (stereo not shown) [Cpd 186, (2E)-3-(3-bromo-4-fluoro-phenyl)-1-{4-[2-hydroxy-1-(3,4,5,6-tetrahydro-2H-[4,4′]bipyridinyl-1-yl)-ethyl]-piperidin-1-yl}-propenone] are 360 nM, 960 nM and 6100 nM.
In the case of `Nc1cc2c(C3CCN(C(C(=O)O)C4CCN(C(=O)/C=C/c5cc(F)c(F)c(F)c5)CC4)CC3)c[nH]c2cn1` (stereo not shown) [Cpd 179, [4-(5-amino-1H-pyrrolo[2,3-c]pyridin-3-yl)-piperidin-1-yl]-{1-[(2E)-3-(3,4,5-trifluoro-phenyl)-acryloyl]-piperidin-4-yl}-acetic acid], the IC50 worked out at 230 nM on CCR2, 140 nM in the assay with THP-1 cells [1] (setting [3]) and 2060 nM in the assay with THP-1 cells [2] (setting [4]).
In the case of `CC(=O)NCC(C1CCN(C(=O)/C=C/c2ccc(Cl)c(Cl)c2)CC1)N1CCC(c2c[nH]c3ccccc23)CC1` (stereo not shown) [Cpd 215], the IC50 came to 90 nM at CCR2, 460 nM with THP-1 cells [1] (setting [3]) and 20 nM in the assay with THP-1 cells [2] (setting [4]).
Regarding `CS(=O)(=O)N(CC(C1CCN(C(=O)/C=C/c2cc(F)cc(F)c2)CC1)N1CCC(c2c[nH]c3ccccc23)CC1)S(C)(=O)=O` (stereo not shown) [Cpd 134, N-{2-{1-[(2E)-3-(3,5-difluoro-phenyl)-acryloyl]-piperidin-4-yl}-2-[4-(1H-indol-3-yl)-piperidin-1-yl]-ethyl}-N-methanesulfonyl-methanesulfonamide], the IC50 on CCR2 was determined as 300 nM; with THP-1 cells [1] (setting [3]), 90 nM; in the assay on THP-1 cells [2] (setting [4]), 10 nM.
As to `CSc1cccc(NC(=O)N2CCC(C(C(=O)O)N3CCC(c4c[nH]c5ccccc45)CC3)CC2)c1` (stereo not shown) [Cpd 144, [4-(1H-indol-3-yl)-piperidin-1-yl]-[1-(3-methylsulfanyl-phenylcarbamoyl)-piperidin-4-yl]-acetic acid], the IC50 at CCR2 worked out at 50 nM; in the assay with THP-1 cells [1] (setting [3]), 500 nM; in the assay with THP-1 cells [2] (setting [4]) it was 1300 nM.
One may read the inhibition as the share of the control response that was lost under treatment. For the compound `O=C(/C=C/c1cc(F)cc(F)c1)N1CCC(C(CO)N2CCC(c3c[nH]c4ccc(O)cc34)CC2)CC1` (stereo not shown) [Cpd 259, (2E)-3-(3,5-difluoro-phenyl)-1-(4-{2-hydroxy-1-[4-(5-hydroxy-1H-indol-3-yl)-piperidin-1-yl]-ethyl}-piperidin-1-yl)-propenone], the values for the IC50 against CCR2 and in the assay on THP-1 cells [1] (setting [3]) were 2 nM and 5 nM, respectively. Further, the inhibition at 25 µM in the assay on THP-1 cells [2] (Homo sapiens, THP-1, read-out: Inhibition of MCP-1 Induced Calcium Ion Influx, percent inhibition) was 88%.
Regarding `COc1ccc(C2CCN([C@H](CO)C3CCN(C(=O)/C=C/c4cc(F)cc(F)c4)CC3)CC2)cc1` [Cpd 180, (2E)-3-(3,5-difluoro-phenyl)-1-(4-{(1S)-2-hydroxy-1-[4-(4-methoxy-phenyl)-piperidin-1-yl]-ethyl}-piperidin-1-yl)-propenone], the IC50 against CCR2 was found to be 70 nM; in the assay on THP-1 cells [1] (setting [3]) it was 90 nM; in the assay with THP-1 cells [2] (setting [4]), 120 nM.
For the compound `O=C(/C=C/c1cc(F)cc(F)c1)N1CCC(C(CO)N2CCC(c3c[nH]c4ccc(F)cc34)CC2)CC1` (stereo not shown) [Cpd 171, (2E)-3-(3,5-difluoro-phenyl)-1-(4-{1-[4-(5-fluoro-1H-indol-3-yl)-piperidin-1-yl]-2-hydroxy-ethyl}-piperidin-1-yl)-propenone], the results for the IC50 against CCR2, in the assay with THP-1 cells [1] (setting [3]) and in the assay with THP-1 cells [2] (setting [4]) were 4.5 nM, 6 nM and 7 nM, respectively.
`Cc1cccc(NC(=O)N2CCC(C(C(=O)O)N3CCC(c4c[nH]c5ccccc45)CC3)CC2)c1` (stereo not shown) [Cpd 98, [4-(1H-indol-3-yl)-piperidin-1-yl]-(1-m-tolylcarbamoyl-piperidin-4-yl)-acetic acid]: the IC50 at CCR2 stood at 890 nM; in the assay with THP-1 cells [1] (setting [3]), 2200 nM; with THP-1 cells [2] (setting [4]) it was 1850 nM.
On to `O=C(/C=C/c1cc(F)c(F)c(F)c1)N1CCC([C@@H](CO)N2CCC(c3c[nH]c4ccccc34)CC2)CC1` [Cpd 187, (2E)-1-(4-{(1S)-2-hydroxy-1-[4-(1H-indol-3-yl)-piperidin-1-yl]-ethyl}-piperidin-1-yl)-3-(3,4,5-trifluoro-phenyl)-propenone], for which the IC50 on CCR2 turned out to be 0.6 nM; in the assay with THP-1 cells [1] (setting [3]), 2 nM; in the assay on THP-1 cells [2] (setting [4]) it was 0.05 nM.
`Nc1ccc2[nH]cc(C3CCN(C(C(=O)O)C4CCN(C(=O)/C=C/c5cc(F)c(F)c(F)c5)CC4)CC3)c2n1` (stereo not shown) [Cpd 178, [4-(5-amino-1H-pyrrolo[3,2-b]pyridin-3-yl)-piperidin-1-yl]-{1-[(2E)-3-(3,4,5-trifluoro-phenyl)-acryloyl]-piperidin-4-yl}-acetic acid]: the IC50 on CCR2 turned out to be 90 nM; with THP-1 cells [1] (setting [3]), 180 nM; in the assay on THP-1 cells [2] (setting [4]) it was 2350 nM.
For the compound `COc1ccc2c(C3CCN(C(CO)C4CCN(C(=O)/C=C/c5cc(F)c(F)c(F)c5)CC4)CC3)c[nH]c2c1` (stereo not shown) [Cpd 132, (2E)-1-(4-{2-hydroxy-1-[4-(6-methoxy-1H-indol-3-yl)-piperidin-1-yl]-ethyl}-piperidin-1-yl)-3-(3,4,5-trifluoro-phenyl)-propenone], the values for the IC50 in the assay with THP-1 cells [1] (setting [5]) and with THP-1 cells [2] (setting [6]) were 70 nM and 3 nM, respectively.
As for `O=C(/C=C/c1ccc(Cl)c(Cl)c1)N1CCC(C(CO)N2CCC(c3c[nH]c4ncccc34)CC2)CC1` (stereo not shown) [Cpd 208, (2E)-3-(3,4-dichloro-phenyl)-1-(4-{2-hydroxy-1-[4-(1H-pyrrolo[2,3-b]pyridin-3-yl)-piperidin-1-yl]-ethyl}-piperidin-1-yl)-propenone], the IC50 with THP-1 cells [1] (Homo sapiens, THP-1, 3 h, THP-1 cells, MCP-1 0.01 μg/mL, 3 hours) came out at 13 nM; with THP-1 cells [2] (Homo sapiens, THP-1, read-out: Inhibition of MCP-1 Induced Calcium Ion Influx IC50, THP-1 cells, 0.2 μM MCP-1, FLIPR), 0.8 nM.
For `COc1ccc2c(C3CCN(C(CO)C4CCN(C(=O)/C=C/c5cc(F)c(F)c(F)c5)CC4)CC3)c[nH]c2c1` (stereo not shown) [Cpd 167, (2E)-1-(4-{2-hydroxy-1-[4-(6-methoxy-1H-indol-3-yl)-piperidin-1-yl]-ethyl}-piperidin-1-yl)-3-(3,4,5-trifluoro-phenyl)-propenone], the IC50 in the assay on THP-1 cells [1] (setting [5]) and with THP-1 cells [2] (setting [6]) was 30 nM throughout.
On to `O=C(O)C(C1CCN(C(=O)Nc2ccc(Cl)cc2)CC1)N1CCC(c2c[nH]c3ccccc23)CC1` (stereo not shown) [Cpd 88, [1-(4-chloro-phenylcarbamoyl)-piperidin-4-yl]-[4-(1H-indol-3-yl)-piperidin-1-yl]-acetic acid], for which the IC50 in the assay on THP-1 cells [1] (setting [3]) amounted to 240 nM; in the assay with THP-1 cells [2] (setting [4]), 410 nM.
For `COC(=O)C(C1CCN(C(=O)/C=C/c2cc(F)c(F)c(F)c2)CC1)N1CCC(c2c[nH]c3ccccc23)CC1` (stereo not shown) [Cpd 87, [4-(1H-indol-3-yl)-piperidin-1-yl]-{1-[(2E)-3-(3,4,5-trifluoro-phenyl)-acryloyl]-piperidin-4-yl}-acetic acid methyl ester], the IC50 in the assay on THP-1 cells [1] (Homo sapiens, THP-1, 3 h) is 1000 nM; with THP-1 cells [2] (setting [4]) it was 360 nM.
